# Several values for one entry are separate records, joined by “and”; a condition that tells them apart may be missing. Identical values can stand only once.
# Tested on: PC-3 multi-cell spheroids, viability
# Experiment: Anticancer human tumor PC-3 cell line growth inhibition [IpAb];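 also: spheroids exposed to compounds for 7 days before readout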;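 as to viability, T/C: 100% = DMSO vehicle control wells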
# Details: for viability, T/C: stronger effect = lower value
# Description: Combinatorial screen of targeted agents with ipatasertib and abemaciclib in multi-cell type tumor spheroids
# A high-throughput screen of multi-cell type tumor spheroids was designed to identify active combinations of targeted small molecules and ipatasertib or abemaciclib. Complex spheroids include a stromal component modeled by human endothelial cells (HUVEC) and fibroblasts modeled by human mesenchymal stem cells (MSCs). The concentration ranges selected for each drug and investigational agent were based upon clinically achievable concentrations if the clinical Cmax of the agent was known.
# Compounds. The drugs and investigational agents: ipatasertib (NSC767898), abemaciclib(NSC768073), selumetinib (NSC741078), trametinib (758246), adavosertib (NSC754352), everolimus (NSC733504), sapanisertib (NSC764658), vemurafenib (NSC761431), venetoclax (NSC766270), copanlisib (NSC809693), apelisib (NSC765974), palbociblib (NSC758247), vemurafenib (NSC761431), dabrafenib (NSC764134), ravoxertinib (NSC781343), BMS-387032 (NSC767048), sotorasib (NSC818433), talazoparib (NSC767125) and afursertib (NSC778305), were obtained from the National Cancer Institute (NCI) Developmental Therapeutics Program Chemical Repository. The FDA-approved anticancer drug set is available from the NCI Developmental Therapeutics Program. […] The stock solutions were prepared in dimethyl sulfoxide (DMSO, Sigma-Aldrich, St. Louis, MO, cat. D2650) at 800-fold the tested concentration and stored at -70 degrees C prior to their use. All drugs and investigational agents were tested over a range starting from a high concentration at or near the clinical Cmax and decreasing in half-log increments. If the clinical Cmax for an agent had not been determined, the highest concentration tested was 10 microM.
# NCI60 Cell Culture. NCI60 cell lines were obtained from the NCI Developmental Therapeutics Program Tumor Repository. For each lot of cells, the Repository performed Applied Biosystems AmpFLSTR Identifiler testing with PCR amplification to confirm consistency with the published Identifier STR profile for each cell line. Cells were kept in continuous culture for no more than 20 passages. The optimal seeding densities for each of the cell lines at each time point assessed were determined prior to performing the concentration response studies. Briefly, the NCI60 human tumor lines were grown as monolayers in RPMI 1640 medium supplemented with 10% FBS and 2 mmol/L L-glutamine.
# An additional 9 lines were from the NCI60 cell line panel including MDA-MB-231 breast carcinoma, MDA-MB-468 breast carcinoma, MCF7 breast carcinoma, Hs578T breast carcinoma, MALME-3M melanoma, SK-MEL-2 melanoma, SK-OV-3 ovarian carcinoma, DU-145 prostate carcinoma, PC-3 prostate carcinoma, all cell lines along with major genetic alterations are listed on Table 2. Pooled donor human umbilical vein endothelial cells (HUVEC, Lonza, cat. CC-2519) and human mesenchymal stem cells (hMSC, Lonza, cat. PT-2501) were purchased from Lonza (Walkersville, MD).
# PDMR cell lines were grown in complete medium (DC medium): Dulbecco's modified Eagle's medium (DMEM)/F12 supplemented with 5% fetal bovine serum (FBS), 2 mM L-glutamine, 100 U/mL penicillin and 100 µg/ml streptomycin, 0.4 µg/ml hydrocortisone, 10 ng/ml epidermal growth factor (EGF) recombinant human protein, 24 µg/mL adenine, and 0.1 mg/mL primocin. During culture from frozen stock vials, PDMR cells were cultured in the same medium containing 10 µM Y-27632 (see Table 3). The PDCs were cultured in complete DMEM/F12 media without 10 microM Y-27632 dihydrochloride for at least two passages prior to the screen. The pooled donor HUVEC and hMSC were cultured in endothelial cell growth medium 2 (PromoCell, Heidelberg, Germany, cat. C-22011) and mesenchymal stem cell growth medium 2 (PromoCell, cat. C-28009), respectively. For all experiments, HUVEC and hMSC were used at passages </=5.
# […]
# [1] = curve of first compound, second compound 0.1 µM
# [2] = curve of first compound, second compound 0.316 µM
# [3] = curve of first compound, second compound 1 µM
# [4] = curve of first compound, second compound 3.16 µM
# [5] = curve of first compound, second compound 10 µM
# [6] = second compound 0.1 µM, first compound 0.0316 µM
# [7] = second compound 0.1 µM, first compound 0.1 µM
# [8] = second compound 0.1 µM, first compound 0.316 µM
# [9] = second compound 0.1 µM, first compound 1 µM
# [10] = second compound 0.1 µM, first compound 3.16 µM
# [11] = second compound 0.1 µM, first compound 10 µM
# [12] = second compound 0.316 µM, first compound 0.0316 µM
# [13] = second compound 0.316 µM, first compound 0.1 µM
# [14] = second compound 0.316 µM, first compound 0.316 µM
# [15] = second compound 0.316 µM, first compound 1 µM
# [16] = second compound 0.316 µM, first compound 3.16 µM
# [17] = second compound 0.316 µM, first compound 10 µM
# [18] = second compound 1 µM, first compound 0.0316 µM
# [19] = second compound 1 µM, first compound 0.1 µM
# [20] = second compound 1 µM, first compound 0.316 µM
# [21] = second compound 1 µM, first compound 1 µM
# [22] = second compound 1 µM, first compound 3.16 µM
# [23] = second compound 1 µM, first compound 10 µM
# [24] = second compound 3.16 µM, first compound 0.0316 µM
# [25] = second compound 3.16 µM, first compound 0.1 µM
# [26] = second compound 3.16 µM, first compound 0.316 µM
# [27] = second compound 3.16 µM, first compound 1 µM
# [28] = second compound 3.16 µM, first compound 3.16 µM
# [29] = second compound 3.16 µM, first compound 10 µM
# [30] = second compound 10 µM, first compound 0.0316 µM
# [31] = second compound 10 µM, first compound 0.1 µM
# [32] = second compound 10 µM, first compound 0.316 µM
# [33] = second compound 10 µM, first compound 1 µM
# [34] = second compound 10 µM, first compound 3.16 µM
# [35] = second compound 10 µM, first compound 10 µM
structure (smiles),measurement,setting,value
CC1(C)CCC(CN2CCN(c3ccc(C(=O)NS(=O)(=O)c4ccc(NCC5CCOCC5)c([N+](=O)[O-])c4)c(Oc4cnc5[nH]ccc5c4)c3)CC2)=C(c2ccc(Cl)cc2)C1 + CC(C)NCC(C(=O)N1CCN(c2ncnc3c2C(C)CC3O)CC1)c1ccc(Cl)cc1,IC50,[1],4.27 µM
same,IC50,[2],< 0.0316 µM
same,IC50,[3],< 0.0316 µM
same,IC50,[4],< 0.0316 µM
same,IC50,[5],< 0.0316 µM
same,"viability, T/C",[6],69.2%
same,"viability, T/C",[7],63.2%
same,"viability, T/C",[8],67.6%
same,"viability, T/C",[9],63.2%
same,"viability, T/C",[10],69%
same,"viability, T/C",[11],3.74%
same,"viability, T/C",[12],43%
same,"viability, T/C",[13],46.8%
same,"viability, T/C",[14],42.7%
same,"viability, T/C",[15],45.3%
same,"viability, T/C",[16],35.7%
same,"viability, T/C",[17],3.22%
same,"viability, T/C",[18],22%
same,"viability, T/C",[19],20.5%
same,"viability, T/C",[20],22.4%
same,"viability, T/C",[21],19%
same,"viability, T/C",[22],15.8%
same,"viability, T/C",[23],3.59%
same,"viability, T/C",[24],14.5%
same,"viability, T/C",[25],15.3%
same,"viability, T/C",[26],12.4%
same,"viability, T/C",[27],13.4%
same,"viability, T/C",[28],12.7%
same,"viability, T/C",[29],3.12%
same,"viability, T/C",[30],13.7%
same,"viability, T/C",[31],12.7%
same,"viability, T/C",[32],14.1%
same,"viability, T/C",[33],11.5%
same,"viability, T/C",[34],10.7%
same,"viability, T/C",[35],0.81%
CC(C)n1nc(-c2ccc3oc(N)nc3c2)c2c(N)ncnc21,"viability, T/C",compound 0.000316 µM,93% and 98.7%
same,"viability, T/C",compound 0.001 µM,55.6% and 81.3%
same,"viability, T/C",compound 0.00316 µM,42.7% and 57.6%
same,"viability, T/C",compound 0.01 µM,25.8% and 25%
same,"viability, T/C",compound 0.0316 µM,11.9% and 12.8%
same,"viability, T/C",compound 0.1 µM,9.65% and 10.2%
same,IC50,curve of compound,0.00171 µM and 0.00389 µM
CCN1CCN(Cc2ccc(Nc3ncc(F)c(-c4cc(F)c5nc(C)n(C(C)C)c5c4)n3)nc2)CC1,IC50,"compound alone, run of 44348",> 1 µM and 0.502 µM
CC(C)n1nc(-c2ccc3oc(N)nc3c2)c2c(N)ncnc21 + CC(C)NCC(C(=O)N1CCN(c2ncnc3c2C(C)CC3O)CC1)c1ccc(Cl)cc1,IC50,[1],0.0013 µM
same,IC50,[2],< 0.000316 µM
same,IC50,[3],< 0.000316 µM
same,IC50,[4],< 0.000316 µM
same,IC50,[5],< 0.000316 µM
same,"viability, T/C","second compound 0.1 µM, first compound 0.000316 µM",63%
same,"viability, T/C","second compound 0.1 µM, first compound 0.001 µM",52.6%
same,"viability, T/C","second compound 0.1 µM, first compound 0.00316 µM",38.1%
same,"viability, T/C","second compound 0.1 µM, first compound 0.01 µM",20.2%
same,"viability, T/C",[6],10.4%
same,"viability, T/C",[7],10%
same,"viability, T/C","second compound 0.316 µM, first compound 0.000316 µM",37.3%
same,"viability, T/C","second compound 0.316 µM, first compound 0.001 µM",32.8%
same,"viability, T/C","second compound 0.316 µM, first compound 0.00316 µM",18.4%
same,"viability, T/C","second compound 0.316 µM, first compound 0.01 µM",11.8%
same,"viability, T/C",[12],7.3%
same,"viability, T/C",[13],6.67%
same,"viability, T/C","second compound 1 µM, first compound 0.000316 µM",20%
same,"viability, T/C","second compound 1 µM, first compound 0.001 µM",14.8%
same,"viability, T/C","second compound 1 µM, first compound 0.00316 µM",9.96%
same,"viability, T/C","second compound 1 µM, first compound 0.01 µM",7.81%
same,"viability, T/C",[18],5.46%
same,"viability, T/C",[19],4.64%
same,"viability, T/C","second compound 3.16 µM, first compound 0.000316 µM",12%
same,"viability, T/C","second compound 3.16 µM, first compound 0.001 µM",10.3%
same,"viability, T/C","second compound 3.16 µM, first compound 0.00316 µM",8.27%
same,"viability, T/C","second compound 3.16 µM, first compound 0.01 µM",5.41%
same,"viability, T/C",[24],3.69%
same,"viability, T/C",[25],4.13%
same,"viability, T/C","second compound 10 µM, first compound 0.000316 µM",12%
same,"viability, T/C","second compound 10 µM, first compound 0.001 µM",10.2%
same,"viability, T/C","second compound 10 µM, first compound 0.00316 µM",7.33%
same,"viability, T/C","second compound 10 µM, first compound 0.01 µM",3.83%
same,"viability, T/C",[30],2.74%
same,"viability, T/C",[31],2.74%
Cn1ncc(Cl)c1-c1cc(C(=O)NC(CN)Cc2cccc(F)c2)sc1Cl (stereo not drawn) + CC(C)NCC(C(=O)N1CCN(c2ncnc3c2C(C)CC3O)CC1)c1ccc(Cl)cc1,IC50,[1],0.0811 µM
same,IC50,[2],< 0.0316 µM
same,IC50,[3],< 0.0316 µM
same,IC50,[4],< 0.0316 µM
same,IC50,[5],< 0.0316 µM
same,"viability, T/C",[6],59.9%
same,"viability, T/C",[7],48.8%
same,"viability, T/C",[8],34.3%
same,"viability, T/C",[9],19.8%
same,"viability, T/C",[10],16.9%
same,"viability, T/C",[11],0.15%
same,"viability, T/C",[12],35.7%
same,"viability, T/C",[13],40.3%
same,"viability, T/C",[14],29.2%
same,"viability, T/C",[15],17.7%
same,"viability, T/C",[16],14.1%
same,"viability, T/C",[17],0.17%
same,"viability, T/C",[18],24.3%
same,"viability, T/C",[19],24.5%
same,"viability, T/C",[20],19.9%
same,"viability, T/C",[21],16.4%
same,"viability, T/C",[22],15.8%
same,"viability, T/C",[23],0.14%
same,"viability, T/C",[24],15.2%
same,"viability, T/C",[25],15.8%
same,"viability, T/C",[26],15.5%
same,"viability, T/C",[27],16%
same,"viability, T/C",[28],15.3%
same,"viability, T/C",[29],0.26%
same,"viability, T/C",[30],13.6%
same,"viability, T/C",[31],14.1%
same,"viability, T/C",[32],13.6%
same,"viability, T/C",[33],14.6%
same,"viability, T/C",[34],13.9%
same,"viability, T/C",[35],0.16%

# Source: PubChem BioAssay AID2060327 (Molecular Pharmacology Branch, DTP, NCI, 2025)
